PubChem BioAssay (NCI)
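Where inhibition never reached the appropriate level, the endpoint shown equals the highest concentration tested. Otherwise, values were interpolated linearly from a five-concentration, 48-hour dose response in 96-well plates. GI50 is the concentration that inhibits growth by half. The concentration for full growth arrest is given as TGI.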

How the values were obtained:
Test in all cases: NCI tumour cell line growth inhibition, 48 h
T-47D breast = test system: T-47D breast
OVCAR-5 ovarian = test system: OVCAR-5 ovarian
SK-MEL-2 melanoma = test system: SK-MEL-2 melanoma
NCI-H23 lung = test system: NCI-H23 lung
786-0 renal = test system: 786-0 renal
SF-539 CNS = test system: SF-539 CNS
A498 renal = test system: A498 renal
CCRF-CEM leukemia = test system: CCRF-CEM leukemia
MDA-MB-435 = test system: MDA-MB-435
CAKI-1 renal = test system: CAKI-1 renal
OVCAR-3 ovarian = test system: OVCAR-3 ovarian
HOP-92 NSCLC = test system: HOP-92 NSCLC
HS 578T breast = test system: HS 578T breast
MCF7 breast = test system: MCF7 breast
RPMI-8226 leukemia = test system: RPMI-8226 leukemia
IGROV1 ovarian = test system: IGROV1 ovarian
SF-268 CNS = test system: SF-268 CNS
HOP-62 NSCLC = test system: HOP-62 NSCLC
HL-60(TB) leukemia = test system: HL-60(TB) leukemia
RXF 393 renal = test system: RXF 393 renal
TK-10 renal = test system: TK-10 renal
U251 CNS = test system: U251 CNS
HCC-2998 colon = test system: HCC-2998 colon
HCT-116 colon = test system: HCT-116 colon
SF-295 CNS = test system: SF-295 CNS
MOLT-4 leukemia = test system: MOLT-4 leukemia
SNB-75 CNS = test system: SNB-75 CNS
MDA-MB-231 breast = test system: MDA-MB-231 breast
MALME-3M melanoma = test system: MALME-3M melanoma
UACC-257 melanoma = test system: UACC-257 melanoma
NCI-H460 lung = test system: NCI-H460 lung
SN12C renal = test system: SN12C renal
ACHN renal = test system: ACHN renal
SNB-19 CNS = test system: SNB-19 CNS
NCI-H522 lung = test system: NCI-H522 lung
BT-549 breast = test system: BT-549 breast
COLO 205 colon = test system: COLO 205 colon
SR leukemia = test system: SR leukemia
UO-31 renal = test system: UO-31 renal
A549 NSCLC = test system: A549 NSCLC
SK-MEL-5 melanoma = test system: SK-MEL-5 melanoma
LOX IMVI melanoma = test system: LOX IMVI melanoma
HT29 colon = test system: HT29 colon
SK-MEL-28 melanoma = test system: SK-MEL-28 melanoma
SK-OV-3 ovarian = test system: SK-OV-3 ovarian
NCI-H226 lung = test system: NCI-H226 lung
K-562 leukemia = test system: K-562 leukemia
NCI/ADR-RES ovarian = test system: NCI/ADR-RES ovarian
PC-3 prostate = test system: PC-3 prostate
DU-145 prostate = test system: DU-145 prostate
OVCAR-8 ovarian = test system: OVCAR-8 ovarian
HCT-15 colon = test system: HCT-15 colon
KM12 colon = test system: KM12 colon
OVCAR-4 ovarian = test system: OVCAR-4 ovarian
SW-620 colon = test system: SW-620 colon
UACC-62 melanoma = test system: UACC-62 melanoma

CCc1ccc(CNCC(O)c2ccccc2)cc1 (configuration not stated)
GI50 (T-47D breast): 20.2 µM | TGI (T-47D breast): 51.9 µM | GI50 (OVCAR-5 ovarian): 18.1 µM | TGI (OVCAR-5 ovarian): 44.2 µM | GI50 (SK-MEL-2 melanoma): 17.2 µM | TGI (SK-MEL-2 melanoma): 33.7 µM | GI50 (NCI-H23 lung): 49.2 µM | TGI (NCI-H23 lung): > 100 µM | GI50 (786-0 renal): 20.1 µM | TGI (786-0 renal): 53.8 µM | GI50 (SF-539 CNS): 16.5 µM | TGI (SF-539 CNS): 39.5 µM | GI50 (A498 renal): 5.14 µM | TGI (A498 renal): 47.2 µM | GI50 (CCRF-CEM leukemia): 34.5 µM | TGI (CCRF-CEM leukemia): > 100 µM | GI50 (MDA-MB-435): 6.93 µM | TGI (MDA-MB-435): 20.1 µM | GI50 (CAKI-1 renal): 25.4 µM | TGI (CAKI-1 renal): > 100 µM | GI50 (OVCAR-3 ovarian): 25.2 µM | TGI (OVCAR-3 ovarian): 79.2 µM | GI50 (HOP-92 NSCLC): 6.14 µM | TGI (HOP-92 NSCLC): 38.1 µM | GI50 (HS 578T breast): 28.1 µM | TGI (HS 578T breast): > 100 µM | GI50 (MCF7 breast): 15.5 µM | TGI (MCF7 breast): 34.2 µM | GI50 (RPMI-8226 leukemia): 22.7 µM | TGI (RPMI-8226 leukemia): 53.3 µM | GI50 (IGROV1 ovarian): 47.8 µM | TGI (IGROV1 ovarian): > 100 µM | GI50 (SF-268 CNS): 33.6 µM | TGI (SF-268 CNS): > 100 µM | GI50 (HOP-62 NSCLC): 37.1 µM | TGI (HOP-62 NSCLC): > 100 µM | GI50 (HL-60(TB) leukemia): 23.4 µM | TGI (HL-60(TB) leukemia): 68.6 µM | GI50 (RXF 393 renal): 14.3 µM | TGI (RXF 393 renal): 45.5 µM | GI50 (TK-10 renal): 34.2 µM | TGI (TK-10 renal): > 100 µM | GI50 (U251 CNS): 17.7 µM | TGI (U251 CNS): 43.1 µM | GI50 (HCC-2998 colon): 17.9 µM | TGI (HCC-2998 colon): 36.8 µM | GI50 (HCT-116 colon): 28.4 µM | TGI (HCT-116 colon): > 100 µM | GI50 (SF-295 CNS): 16.5 µM | TGI (SF-295 CNS): 35.5 µM | GI50 (MOLT-4 leukemia): 21.8 µM | TGI (MOLT-4 leukemia): 54.5 µM | GI50 (SNB-75 CNS): 5.39 µM | TGI (SNB-75 CNS): 42.2 µM | GI50 (MDA-MB-231 breast): 13.2 µM | TGI (MDA-MB-231 breast): 35.7 µM | GI50 (MALME-3M melanoma): 14.8 µM | TGI (MALME-3M melanoma): 31.2 µM | GI50 (UACC-257 melanoma): 16.2 µM | TGI (UACC-257 melanoma): 35.7 µM | GI50 (NCI-H460 lung): 19.1 µM | TGI (NCI-H460 lung): 42.8 µM | GI50 (SN12C renal): 33.5 µM | TGI (SN12C renal): > 100 µM | GI50 (ACHN renal): 31.4 µM | TGI (ACHN renal): > 100 µM | GI50 (SNB-19 CNS): 46.9 µM | TGI (SNB-19 CNS): > 100 µM | GI50 (NCI-H522 lung): 24.7 µM | TGI (NCI-H522 lung): 70.5 µM | GI50 (BT-549 breast): 8.3 µM | TGI (BT-549 breast): > 100 µM | GI50 (COLO 205 colon): 16.6 µM | TGI (COLO 205 colon): 33 µM | GI50 (SR leukemia): 13.5 µM | TGI (SR leukemia): 49.2 µM | GI50 (UO-31 renal): 18.9 µM | TGI (UO-31 renal): > 100 µM | GI50 (A549 NSCLC): 39.2 µM | TGI (A549 NSCLC): > 100 µM | GI50 (SK-MEL-5 melanoma): 15.7 µM | TGI (SK-MEL-5 melanoma): 29.2 µM | GI50 (LOX IMVI melanoma): 16.4 µM | TGI (LOX IMVI melanoma): 34 µM | GI50 (HT29 colon): 21.5 µM | TGI (HT29 colon): 68.4 µM | GI50 (SK-MEL-28 melanoma): 14.5 µM | TGI (SK-MEL-28 melanoma): 28.7 µM | GI50 (SK-OV-3 ovarian): 63 µM | TGI (SK-OV-3 ovarian): > 100 µM | GI50 (NCI-H226 lung): > 100 µM | TGI (NCI-H226 lung): > 100 µM | GI50 (K-562 leukemia): 7.85 µM | TGI (K-562 leukemia): 62.6 µM | GI50 (NCI/ADR-RES ovarian): 20.8 µM | TGI (NCI/ADR-RES ovarian): 71.2 µM | GI50 (PC-3 prostate): 34.8 µM | TGI (PC-3 prostate): > 100 µM | GI50 (DU-145 prostate): 35.5 µM | TGI (DU-145 prostate): > 100 µM | GI50 (OVCAR-8 ovarian): 26.5 µM | TGI (OVCAR-8 ovarian): > 100 µM | GI50 (HCT-15 colon): 17.3 µM | TGI (HCT-15 colon): 53 µM | GI50 (KM12 colon): 15 µM | TGI (KM12 colon): 32.1 µM | GI50 (OVCAR-4 ovarian): 29.6 µM | TGI (OVCAR-4 ovarian): > 100 µM | GI50 (SW-620 colon): 18.5 µM | TGI (SW-620 colon): 42.9 µM | GI50 (UACC-62 melanoma): 16.5 µM | TGI (UACC-62 melanoma): 32.4 µM
